{
  "source": "paper PMC10776879",
  "about": "“In vitro screening of topical formulation excipients for epithelial toxicity in cancerous and non-cancerous cell lines” (EXCLI Journal, 2023)",
  "key": {"[1]": {"conditions": "Table 1, physicochemical information of the excipients, source not given; cited from earlier work"}, "D24 human melanoma cells [2]": {"system": "D24 human melanoma cells", "test": "Trypan blue (TB) exclusion assay, membrane integrity", "format": "cell-based", "conditions": "24 h exposure, read-out: IC50 (μg/ml) D24, TB", "experimental": "(§1) The dye exclusion test is routinely applied in laboratories to assess the number of live cells present in a cell suspension. […] In this assay a cell suspension is mixed with dye and then visualized to distinguish the cells that take up dye from the ones that exclude it. Viable cells will be seen as a clear cytoplasm whereas a dead cell will appear with a blue cytoplasm (Strober, 2001[86]). After cell incubation for 24 h, the excipient-containing medium was removed, and cells were trypsinized using trypsin-EDTA to obtain cell suspension. 20 µl of trypan blue dye was mixed thoroughly with 20 µl cell suspension by pipetting ups and downs and loaded into the cell counting slide. Cell numbers were detected by the automated cell counting machine. To find the total number of viable cells in one ml of aliquot, the number of viable cells was multiplied by 2 (the dilution factor for trypan blue). Viable cell percentage was calculated as follows: […]"}, "[3]": {"system": "WM1366 human melanoma cells", "test": "Trypan blue (TB) exclusion assay, membrane integrity", "format": "cell-based", "conditions": "24 h exposure, read-out: IC50 (μg/ml) WM1366, TB", "experimental": "as §1"}, "[4]": {"system": "HaCaT human keratinocytes", "test": "Trypan blue (TB) exclusion assay, membrane integrity", "format": "cell-based", "conditions": "24 h exposure, read-out: IC50 (μg/ml) HaCaT, TB", "experimental": "as §1"}, "[5]": {"system": "WM164 human melanoma cells", "test": "Trypan blue (TB) exclusion assay, membrane integrity", "format": "cell-based", "conditions": "24 h exposure, read-out: IC50 (μg/ml) WM164, TB", "experimental": "as §1"}, "[6]": {"system": "primary skin fibroblasts (FB)", "test": "Trypan blue (TB) exclusion assay, membrane integrity", "format": "cell-based", "conditions": "Homo sapiens, Skin fibroblast, 24 h exposure, read-out: IC50 (μg/ml) FB, TB", "experimental": "as §1"}, "[7]": {"system": "human cervical cancer (HeLa) cells", "design": "method as in Ujhelyi et al., 2012[89], 2015[90]", "conditions": "HeLa cell line; ref Ujhelyi et al., 2012[89], 2015[90]; cited from earlier work"}, "[8]": {"system": "human cell lines (WM164, WM1366, D24, HaCaT, FB)", "test": "MTT and CV cytotoxicity, statements over all tested cell lines", "format": "cell-based", "experimental": "(§2) Cells were seeded into the 96-well cell culture plates in 100 μl of complete culture medium at the initial density of 2x10^4 (cells/ml). Cells were incubated under 5 % CO2 at 37 °C for 24 hours for adhering to the wells and medium was then replaced with 100 μl of fresh medium containing excipient solution at the required final concentration. Each concentration was tested in minimum of 5 replicates and control cells were exposed to the culture medium only.\n(§3) After cell incubation for 24 h, the excipient-containing medium was removed, and 100 μl of MTT in PBS (5 mg/ml) diluted 1:10 in medium was then added in the dark. Plates were further incubated for 2-3 h, after which time the medium was removed and the purple formazan product was dissolved by adding 200 μl of DMSO to each well. Plates were then placed in a shaker for 5 min at room temperature and the absorbance of the resulting solutions was measured at 570 nm using a microplate reader (Multiskan™ FC Microplate Photometer). The effect of each treatment was calculated as the percentage of tetrazolium salt reduction by viable cells against the negative control (cells treated with culture medium only).\nFixed cells were stained with crystal violet dye solution to screen cell viability under treatment conditions. Cells are fixed by 4 % (v/v) paraformaldehyde in PBS for 10 minutes. Crystal violet assay of 0.05 % (v/v) is prepared by 1:4 dilution of the crystal violet stock solution (v/v) in 4 % (v/v) paraformaldehyde. The fixed cells were washed twice with PBS and covered with 250 µl crystal violet working solution. The plates were placed on a bench rocker with medium frequency (20 oscillations per minute) at room temperature for 20 minutes. The plates were emptied and washed under indirect stream of tap water for three times and inverted on filter paper. The plates were taped gently on the paper to remove any remaining liquid and air dried with no lid for minimum of 2 hr at room temperature. After the plates were photographed, blue dye was dissolved in DMSO and the optical density of each well was measured at 570 nm (OD570) with a plate reader (Multiskan™ FC Microplate Photometer). The effect of each treatment was calculated as the percentage of crystal viable staining of surviving attached cells, against the negative control (cells treated with culture medium only).\n(§4) To assess the excipients' cytotoxicity, the dose-response effect of each excipient was measured against the cell lines. The cytotoxicity value for each concentration of the excipients was expressed as percentage of viability against the untreated control wells (the optical density of untreated cells was set at 100 % viability) to construct dose-response curves.\nThe cytotoxicity of the excipients was expressed in terms of an IC50 values (concentration causing 50 % death of the cell population) (Goldberg and Frazier, 1989[37]). […] All IC50 values were expressed as µg/ml. The percentage viability was calculated as follows: […]"}, "[9]": {"system": "primary skin fibroblasts (FB)", "test": "Reactive Oxygen Species evaluation with dihydrorhodamine 123", "format": "cell-based, human", "conditions": "greatest applied concentration, 24 h", "experimental": "The oxidant-sensitive dye, dihydrorhodamine 123 (DHR), was used to detect intracellular ROS level. Cells were plated in the flat bottom 96-well plates to sub confluent (60-70 %) then the medium was removed and replaced with the pre-warmed treatment solutions (medium containing different concentration of the excipients). After 24 hours incubation with treatment solutions, medium was removed and replaced with the 100 μl of pre-warmed dying buffer (Hank's balanced salt solution (HBSS) containing 12 µM DHR dye). Cells were incubated for 30 minutes at 37 °C in a humidified 5 % CO2 atmosphere in dark. The cellular fluorescence generated by the DHR oxidation was measured at 485 nm (OD 485) using a microplate reader (Multiskan™ FC Microplate Photometer). […] Data points were recorded every 10 minutes for 60 minutes and exported for analysis by Excel software. The ROS level is calculated as the difference between (Ftest/ Fcontrol) and expressed as percentages of the control value using this formulation: […]\nwhere Ftest and Fcontrol are the fluorescence intensities of the cells exposed to the treatments and the cells with only medium, respectively. Fluorescence intensity of the blank wells were measured at every measurement time points and recorded to compare with the control wells."}, "D24 human melanoma cells [10]": {"system": "D24 human melanoma cells", "test": "MTT cell viability assay", "format": "cell-based", "conditions": "Homo sapiens, 24 h exposure, read-out: IC50 (μg/ml) [Mean, Range] D24, MTT", "experimental": "as §2, §3, §4\n(§5) All IC50 values were expressed as µg/ml. The percentage viability was calculated as follows: […]"}, "[11]": {"system": "WM1366 human melanoma cells", "test": "MTT cell viability assay", "format": "cell-based", "conditions": "Homo sapiens, 24 h exposure, read-out: IC50 (μg/ml) [Mean, Range] WM1366, MTT", "experimental": "as §2, §3, §4, §5"}},
  "data": [
    {"smiles": "CCOCCOCCO", "note": "[Transcutol®, diethylene glycol monoethyl ether]", "values": [
      {"measurement": "HLB", "setting": "[1]", "value": 4},
      {"measurement": "IC50", "setting": "D24 human melanoma cells [2]", "value": 21.6, "unit": "µg/mL"},
      {"measurement": "IC50", "setting": "[3]", "value": 13.7, "unit": "µg/mL"},
      {"measurement": "IC50", "setting": "[4]", "value": 6.57, "unit": "µg/mL"},
      {"measurement": "IC50", "setting": "[5]", "value": 14.6, "unit": "µg/mL"},
      {"measurement": "IC50", "setting": "[6]", "value": 7.08, "unit": "µg/mL"},
      {"measurement": "IC50, MTT endpoint", "setting": "[7]", "value": 34, "unit": "µg/mL"},
      {"measurement": "IC50", "setting": "[8]; Homo sapiens, over the tested cell lines, this study, read-out: IC50", "value": "2 to 5.5", "unit": "µg/mL"},
      {"measurement": "Irritancy ranking", "setting": "[8]; rank by MTT and CV IC50 over all cell lines, 1 = most cytotoxic", "value": 4},
      {"measurement": "ROS production increase vs untreated control", "setting": "[9]", "value": 4.3, "unit": "%"},
      {"measurement": "IC50", "setting": "D24 human melanoma cells [10]", "value": 4.88, "unit": "µg/mL"},
      {"measurement": "IC50", "setting": "[11]", "value": 3.49, "unit": "µg/mL"}
    ]}
  ]
}
